# Reference: US12036224B2, “Formulations, methods, kits, and dosage forms for treating atopic dermatitis and for improved stability of an active pharmaceutical ingredient” (Libertas Bio, Inc., priority 2017, dated 2024)
# “Also recorded” adds a separate entry of the source.
# Tests used:
# [1] = HCl pH dependent solubility profile study; type: physicochemical; details: thermodynamic from solid
# From the text: Analytical studies for 2-(1-(4-((4-(4-hydroxypiperidin-1-yl)phenyl)amino)-5-oxo-5,6-dihydropyrimido[4,5-d]pyridazin-2-yl)piperidin-4-yl)acetonitrile are provided below in Tables 1-3: Table 1 provides the results of an HCl pH dependent solubility profile study, Table 2 provides the results of an HCl solubility profile in organic solvents, and Table 3 provides the results of an HCl stress study.
# [2] = tested on: JAK/STAT pathway in T cells (primary); assay: Inhibition of JAK/STAT pathway in T cells stimulated with various cytokines; type: cell-based; details: T cells (primary) stimulated by various cytokines
# Protocol: FIG. 7A is a graph of the % of subjects to achieve EASI50 over time (Day 1 to Day 29) for a placebo and Compound 1 in the doses of 20 mg, 40 mg and 80 mg. FIG. 7B is a graph of the % of subjects to achieve EASI75 over time (Day 1 to Day 29) for a placebo and Compound 1 in the doses of 20 mg, 40 mg and 80 mg. […] FIG. 8A is a graph of the % CFB (percentage change from baseline) for EASI (decrease) for the placebo and Compound 1 in the doses of 20 mg, 40 mg and 80 mg. FIG. 8B is a graph of the % CFB for BSA (body surface area) (decrease) for the placebo and Compound 1 in the doses of 20 mg, 40 mg and 80 mg. FIG. 8C is a graph of the % CFB for IGA 0-1 (Investigator's Global Assessment) for the placebo and Compound 1 in the doses of 20 mg, 40 mg and 80 mg. FIG. 9 is a graph of day 15 plasma concentration for Compound 1 in the doses of 20 mg, 40 mg and 80 mg. […] In FIG. 10, the IC50 values were determined in biochemical kinase assays using purified partial or full length enzymes. FIG. 11 is a chart showing inhibition of Compound 1 in JAK/STAT pathway in T cells stimulated with various cytokines.
# [3] = tested on: subjects with moderate-to severe atopic dermatitis; assay: Phase 1b study in atopic dermatitis: efficacy (EASI, IGA, pruritus NRS); type: in vivo, human; details: for EASI50 / EASI75: once daily, after 4 weeks; for average decrease in EASI / average decrease in Pruritis (Itch) Numeric Rating Scale (NRS): week 4
# Protocol: The study conducted was a randomized, double-blind, placebo-controlled, multicenter, sequential dose escalation study in subjects with moderate-to severe atopic dermatitis. The study included a screening period (up to 30 days) and a treatment period for 4 weeks with a 14 day follow up period that concluded with an end-of-study visit. Three sequential cohorts of 20, 40 and 80 mg QD were evaluated. At each dose level a total of 12 subjects were enrolled with 9 subjects receiving Compound 1, and 3 subjects receiving matching placebos.
# Upon signing the informed consent, the each subject underwent screening assessments from Day −30 to Day −1 prior to study drug administration. On Day 1 (baseline), eligible subjects were randomized, subjected to the Day 1/baseline assessments and received Compound 1 at 20, 40 or 80 mg or placebo, dependent on cohort and randomization schedule. At this visit, PK/PD samples were collected at predose and up to 8 hours (or up to 12 hours at selected sites). Subjects were monitored in clinic for 2 hours following the first study drug administration. Subjects returned to the clinic on Day 2 for PK and PD samples (24 hours post dose).
# Pre-dose PK and PD samples were collected on Days 8 and 29 (last day of treatment). On Day 15, PK/PD samples were also collected at pre-dose and up to 8 hours post-dose and subjects returned on Day 16 for PK and PD samples (24 hours post dose). Subjects came in for additional safety assessments on Days 8, 22 and 29, as well as at the end of the follow up period (Day 43). Disease assessments were conducted on Days 1, Day 15 and Day 29.
# Compound 1 was administered orally at doses of 20, 40 and 80 mg qd. Compound 1 was made available in 5-mg, 20-mg, and 50-mg strength tablets.
# Assessment of efficacy variables: Preliminary efficacy was assessed by changes in the following assessments between Day 1 (baseline) and Days 15 and 29: IGA, EASI, 5-D Pruritus scale, Pruritus Numeric Rating Scale, % BSA involvement of AD, and skin microbiome analysis
# The IGA is an assessment scale used in clinical studies to determine severity of AD and clinical response to treatment based on a 5-point scale ranging from 0 (clear) to 4 (severe) (18). The IGA score was assessed at screening, day 1/baseline (pre-dose), and days 15, 29, 43 or early termination.
# The Pruritus NRS is a single-question assessment tool that is used to assess the patient's worst itch as a result of AD in the […]. Subjects complete the patient recorded outcome once daily. Patient compliance on the pruritus NRS is followed at each clinic visit. Subjects were instructed on daily reporting at the Baseline visit and are queried for compliance at every clinic visit. Subjects completed the rating scale daily through the last study visit using the scale provided below.
# The Eczema Area and Severity Index (EASI) is a validated measure used in clinical practice and clinical trials to assess the severity and extent of AD. Four AD disease characteristics are assessed for severity by the investigator or designee on a scale of “0” (None) through “3” (severe). In addition, the area of AD involvement is assessed as a percentage by body area of head, trunk, upper and lower extremities and converted to a score of 0 to 6. Subjects were subjected to this assessment at the following visits: screening, day 1/baseline (pre-dose), and days 15, 29, 43 or early termination.
# Methods: Patients were randomized 1:3 placebo or Compound 1 at 20, 40 or 80 mg once daily for 4 weeks (n=36). Inclusion criteria were Eczema Area and Severity Index (EASI) ≥16, body surface area (BSA) involvement ≥10% and an Investigator's Global Assessment (IGA) of ≥3 at baseline visit. Study objectives included safety/tolerability, efficacy and pharmacokinetic measurements. No concomitant administration of topical corticosteroids or other immunosuppressants was permitted during or prior to study.
# [4] = Day 1 to Day 29, 20, 40 and 80 mg
compound,measurement,setting,value
"N#CCC1CCN(c2nc(Nc3ccc(N4CCC(O)CC4)cc3)c3c(=O)[nH]ncc3n2)CC1 [Compound 1, 2-(1-(4-((4-(4-hydroxypiperidin-1-yl)phenyl)amino)-5-oxo-5,6-dihydropyrimido[4,5-d]pyridazin-2-yl)piperidin-4-yl)acetonitrile]",solubility,"[1]; aqueous buffer, pH 4.5 Acetate Buffer, initial pH 4.50, end pH 4.56",2.9 µg/mL
same,solubility,"[1]; aqueous buffer, pH 5.5 Acetate Buffer, initial pH 5.52, end pH 5.12",1 µg/mL
same,solubility,"[1]; aqueous buffer, pH 6.8 Phosphate Buffer, initial pH 6.80, end pH 6.86",2.7 µg/mL
same,solubility,"[1]; aqueous buffer, pH 7.5 Phosphate Buffer, initial pH 7.55, end pH 6.96",0.7 µg/mL
same,solubility,"[1]; simulated gastric fluid, 0.1N HCl, end pH 1.23",10800 µg/mL
same,solubility,"[1]; Water, end pH 2.62",941 µg/mL
same,inhibition of JAK/STAT pathway,[2],strong inhibition
same,EASI50,[3]; 20 mg cohort,29%
same,EASI75,[3]; 20 mg cohort,0%
same,average decrease in EASI,[3]; 20 mg cohort,21%
same,average decrease in Pruritis (Itch) Numeric Rating Scale (NRS),[3]; 20 mg cohort,15%
same,EASI50,[3]; 40 mg cohort,100%
same,EASI75,[3]; 40 mg cohort,63%
same,average decrease in EASI,[3]; 40 mg cohort,79%
same,average decrease in Pruritis (Itch) Numeric Rating Scale (NRS),[3]; 40 mg cohort,47%
same,reduction in itch,"[3]; 80 mg cohort, Day 2",~45%
same,EASI50,[3]; 80 mg cohort,88%
same,EASI75,[3]; 80 mg cohort,50%
same,average decrease in EASI,[3]; 80 mg cohort,70%
same,average decrease in Pruritis (Itch) Numeric Rating Scale (NRS),[3]; 80 mg cohort,71%
same,overall efficacy in moderate to severe AD (in words),[3]; 4 weeks,clear efficacy; also recorded: robust activity in EASI after 4 weeks
same,change in pruritus / patient reported itch (in words),"[3]; 20, 40 and 80 mg once daily",early decrease in pruritis; also recorded: significant reduction in patient reported itch was observed as early as 2nd day of treatment; also recorded: early improvements in pruritus
same,"IGA assessments, subjects reaching 0-1",[3]; 40 and 80 mg cohorts,up to 38%
same,subjects reached EASI90,[3]; [4],3 subjects
same,subjects with 100% clearance,[3]; [4],2 subjects
